Laboratory results: patent US9591867B2, “Compositions of abscisic acid for animal health” (Valent BioSciences Corporation, priority 2010, dated 2017)

Legend:
[1] = tested on: rats; test: Two generation reproduction toxicity study, S-ABA continuously in the diet; assay type: in vivo; details: for Mean Live Offspring Born: per litter; for SPLEEN WEIGHT, % DIFFERENCE: MALES
Procedure: (§1) Tests were conducted with (S)-(+)-abscisic acid in accordance with standard guidelines and procedures as evidenced by EPA Subchronic Toxicity Test Guidelines: 870.3050—Repeated Dose 28-Day Oral Toxicity Study in Rodents (July 2000); 870.3100—90-Day Oral Toxicity in Rodents (August 1998); 870.3650—Combined Repeated Dose Toxicity Study with the Reproduction/Developmental Toxicity Screening Test (July 2000); and 870.3200—21/28-Day Dermal Toxicity (August 1998), as well as Organization for Economic Co-operation and Development (OECD) Guidelines for the Testing of Chemicals including: Test No. 407: Repeated Dose 28-day Oral Toxicity Study in Rodents; Test No. 408: Repeated Dose 90-Day Oral Toxicity Study in Rodents; Test No. 416: Two-Generation Reproduction Toxicity; and Test No. 410: Repeated Dose Dermal Toxicity: 21/28-day Study.
This study was conducted to determine the potential adverse effects of the test substance on reproduction in a 2-generation study. This included determining the effects of the test substance on male and female reproductive processes, including gonadal function, estrous cyclicity, mating behavior, conception, gestation, parturition, lactation, weaning, and on growth and development of the offspring. A minimum of 1 litter was produced in each generation.
Three groups of male and female were offered ABA, continuously in the diet for at least 70 consecutive days prior to mating. Target tests substance concentrations were 10,000, 15,000, and 20,000 ppm for the F0 and F1 generations. A concurrent control group of 30 rats/sex was offered the basal diet continuously throughout the study. F0 animals were approximately 7 weeks of age at the initiation of test diet administration. The test diet was administered to the offspring selected to become the F1 generation following weaning. The F0 and F1 males continued to receive the test substance throughout mating and continuing through the day prior to euthanasia. The F0 and F1 females continued to receive the test substance throughout mating, gestation, and lactation, and through the day of euthanasia. For both generations (F1 and F2), 8 pups per litter (4 per sex, when possible) were selected to reduce the variability among the litters. Offspring (30/sex/group, if possible) from the pairing of the F0 animals were selected to constitute the F1 generation. F0 males and females were exposed for 127-130 consecutive days and F1 males and females were exposed for 178-186 consecutive days.
All animals were observed twice daily for appearance and behavior. Clinical observations, body weights, and food consumption were recorded at appropriate intervals for males throughout the study and for females prior to mating and during gestation and lactation. All F0 and F1 females were allowed to deliver and rear their pups until weaning on lactation day 21. Clinical observations, body weights, and sexes for F1 and F2 pups were recorded at appropriate intervals. Nonselected F1 pups and all surviving F2 pups were necropsied. Selected organs were weighed from 1 pup/sex/litter from F1 and F2 pups that wee necropsied. Each surviving F0 and F1 parental animal received a complete detailed gross necropsy following the completion of weaning of the F1 and F2 pups, respectively; selected organs were weighed. Spermatogenic endpoints were recorded for all F0 and F1 males, and ovarian primordial follicle counts were recorded for all F0 and F1 females in the control and high-exposure groups and all F0 and F1 females suspected of reduced fertility. Designated tissues from all F0 and F1 parental animals were examined microscopically.

[2] = Fetal data at scheduled necropsy (mg/kg/day dose groups); assay type: in vivo
Procedure: as §1

[3] = 10,000 ppm in diet, rat offspring
[4] = 20,000 ppm in diet, rat offspring

Q: With `CC1=CC(=O)CC(C)(C)[C@@]1(O)/C=C/C(C)=C\C(=O)O` [S-ABA, (S)-(+)-abscisic acid] as the compound, how does the “Offspring FOUND DEAD” value ([1]; 10,000 ppm in diet) read?
A: 4

Q: What about the “OFFSPRING WEIGHT, MEAN” value ([1]; 10,000 ppm in diet, FEMALE, postnatal day 1) of the same compound?
A: 6.6 grams

Q: And the “OFFSPRING WEIGHT, MEAN” value ([1]; 10,000 ppm in diet, FEMALE, postnatal day 4)?
A: 9.1 grams

Q: And the “OFFSPRING WEIGHT, MEAN” value ([1]; 10,000 ppm in diet, MALE, postnatal day 1)?
A: 7.1 grams

Q: And the “OFFSPRING WEIGHT, MEAN” value ([1]; 10,000 ppm in diet, MALE, postnatal day 4)?
A: 9.7 grams

Q: What about the “Mean Live Offspring Born” value ([1]; 10,000 ppm in diet) of the same compound?
A: 12.3

Q: What about the “POSTNATAL SURVIVAL, POSTNATAL DAY 0-1, MEAN” value [1, 3] of the same compound?
A: 100.0 % PER LITTER

Q: What about the “POSTNATAL SURVIVAL, POSTNATAL DAY 7-14, MEAN” value [1, 3] of the same compound?
A: 100.0 % PER LITTER

Q: And the “POSTNATAL SURVIVAL, POSTNATAL DAY 14-21, MEAN” value [1, 3]?
A: 100.0 % PER LITTER

Q: And the “Offspring FOUND DEAD” value ([1]; 15,000 ppm in diet)?
A: 15

Q: And the “OFFSPRING WEIGHT, MEAN” value ([1]; 15,000 ppm in diet, FEMALE, postnatal day 1)?
A: 6.6 grams

Q: What about the “OFFSPRING WEIGHT, MEAN” value ([1]; 15,000 ppm in diet, FEMALE, postnatal day 4) of the same compound?
A: 8.8 grams

Q: And the “OFFSPRING WEIGHT, MEAN” value ([1]; 15,000 ppm in diet, FEMALE, postnatal day 7)?
A: 14.0 grams

Q: What about the “OFFSPRING WEIGHT, MEAN” value ([1]; 15,000 ppm in diet, MALE, postnatal day 1) of the same compound?
A: 6.9 grams

Q: What about the “OFFSPRING WEIGHT, MEAN” value ([1]; 15,000 ppm in diet, MALE, postnatal day 4) of the same compound?
A: 9.3 grams

Q: And the “Mean Live Offspring Born” value ([1]; 15,000 ppm in diet)?
A: 13.1

Q: And the “POSTNATAL SURVIVAL, POSTNATAL DAY 14-21, MEAN” value ([1]; 15,000 ppm in diet, rat offspring)?
A: 100.0 % PER LITTER

Q: And the “Offspring FOUND DEAD” value ([1]; 20,000 ppm in diet)?
A: 11

Q: What about the “OFFSPRING WEIGHT, MEAN” value ([1]; 20,000 ppm in diet, FEMALE, postnatal day 1) of the same compound?
A: 6.6 grams

Q: And the “OFFSPRING WEIGHT, MEAN” value ([1]; 20,000 ppm in diet, FEMALE, postnatal day 4)?
A: 8.8 grams

Q: And the “OFFSPRING WEIGHT, MEAN” value ([1]; 20,000 ppm in diet, MALE, postnatal day 1)?
A: 7.0 grams

Q: And the “OFFSPRING WEIGHT, MEAN” value ([1]; 20,000 ppm in diet, MALE, postnatal day 4)?
A: 9.3 grams

Q: And the “Mean Live Offspring Born” value ([1]; 20,000 ppm in diet)?
A: 12.3

Q: What about the “POSTNATAL SURVIVAL, POSTNATAL DAY 4 (POST-SELECT)-21, MEAN” value [1, 4] of the same compound?
A: 98.0 % PER LITTER

Q: And the “POSTNATAL SURVIVAL, POSTNATAL DAY 14-21, MEAN” value [1, 4]?
A: 100.0 % PER LITTER

Q: And the “SPLEEN WEIGHT, % DIFFERENCE” value ([1]; 10,000 PPM vs 0 PPM)?
A: −2.0%

Q: And the “SPLEEN WEIGHT, % DIFFERENCE” value ([1]; 15,000 PPM vs 0 PPM)?
A: −3.0%

Q: And the “SPLEEN WEIGHT, % DIFFERENCE” value ([1]; 20,000 PPM vs 0 PPM)?
A: −8.9%

Q: What about the “offspring mortality (in words)” value ([1]; conclusion from Table 3) of the same compound?
A: decreases

Q: And the “number of live offspring per litter (in words)” value ([1]; conclusion from Table 4)?
A: increases

Q: What about the “follicle size (in words)” value ([1]; conclusion from Table 6) of the same compound?
A: increase

Q: What about the “postnatal offspring survival rates (in words)” value ([1]; rats, conclusion from Table 1) of the same compound?
A: increases

Q: What about the “offspring weight gain (in words)” value ([1]; rats, conclusion from Table 2) of the same compound?
A: increases

Q: What about the “spleen weight (in words)” value ([1]; rats, males and second generation pups) of the same compound?
A: spleen weight reduction

Q: What about the “fetus numbers at necropsy (in words)” value ([2]; conclusion from Table 5) of the same compound?
A: increase

Q: And the “FETAL DATA AT SCHEDULED NECROPSY, SEX FEMALE, MEAN” value ([2]; group 2, 500 MG/KG/DAY)?
A: 7.2

Q: What about the “FETAL DATA AT SCHEDULED NECROPSY, SEX FEMALE, N (number of fetuses)” value ([2]; group 2, 500 MG/KG/DAY) of the same compound?
A: 181

Q: What about the “FETAL DATA AT SCHEDULED NECROPSY, SEX MALE, MEAN” value ([2]; group 2, 500 MG/KG/DAY) of the same compound?
A: 7.5

Q: And the “FETAL DATA AT SCHEDULED NECROPSY, SEX MALE, N (number of fetuses)” value ([2]; group 2, 500 MG/KG/DAY)?
A: 187

Q: And the “FETAL DATA AT SCHEDULED NECROPSY, VIABLE FETUSES, MEAN” value ([2]; group 2, 500 MG/KG/DAY)?
A: 14.7

Q: And the “FETAL DATA AT SCHEDULED NECROPSY, SEX FEMALE, MEAN” value ([2]; group 3, 750 MG/KG/DAY)?
A: 6.6

Q: What about the “FETAL DATA AT SCHEDULED NECROPSY, SEX FEMALE, N (number of fetuses)” value ([2]; group 3, 750 MG/KG/DAY) of the same compound?
A: 166

Q: And the “FETAL DATA AT SCHEDULED NECROPSY, SEX MALE, MEAN” value ([2]; group 3, 750 MG/KG/DAY)?
A: 7.5

Q: What about the “FETAL DATA AT SCHEDULED NECROPSY, SEX MALE, N (number of fetuses)” value ([2]; group 3, 750 MG/KG/DAY) of the same compound?
A: 188

Q: What about the “FETAL DATA AT SCHEDULED NECROPSY, VIABLE FETUSES, MEAN” value ([2]; group 3, 750 MG/KG/DAY) of the same compound?
A: 14.2

Q: And the “FETAL DATA AT SCHEDULED NECROPSY, SEX FEMALE, MEAN” value ([2]; group 4, 1,000 MG/KG/DAY)?
A: 8.3

Q: And the “FETAL DATA AT SCHEDULED NECROPSY, SEX FEMALE, N (number of fetuses)” value ([2]; group 4, 1,000 MG/KG/DAY)?
A: 208

Q: What about the “FETAL DATA AT SCHEDULED NECROPSY, SEX MALE, MEAN” value ([2]; group 4, 1,000 MG/KG/DAY) of the same compound?
A: 6.8

Q: And the “FETAL DATA AT SCHEDULED NECROPSY, SEX MALE, N (number of fetuses)” value ([2]; group 4, 1,000 MG/KG/DAY)?
A: 170

Q: What about the “FETAL DATA AT SCHEDULED NECROPSY, VIABLE FETUSES, MEAN” value ([2]; group 4, 1,000 MG/KG/DAY) of the same compound?
A: 15.1
